Target: PDE1A (Homo sapiens, UniProt P54750)
Assay: PDE1A dose response, Cyclic Nucleotide Phosphodiesterase Assay Kit from Biomol (colorimetric)
Format: biochemical
Conditions: purified PDE1A enzyme, 100 μM cAMP
In short: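 Purified PDE1A hydrolysed 100 μM cAMP with 5′-nucleotidase in Tris 20 mM pH 7.4 with calmodulin, Ca2+, Mg2+, 45 min at 37° C. Released phosphate read by malachite-green absorbance at 615 nm. Duplicate 8-point 1/3 dilutions from 20 μM, 1% DMSO; 10 μM vardenafil defined 100% inhibition.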

IC50 [nM]	SMILES
501 to 1000	CC(C)(C)n1ncc2c(=O)[nH]c(C3CN(c4nccs4)C3)nc21 [Example 141, 1-tert-butyl-6-(1-(thiazol-2-yl)azetidin-3-yl)-1H-pyrazolo[3,4-d]pyrimidin-4(5H)-one]
101 to 500	O=c1[nH]c(C2CN(c3nc(CN4CCOCC4)cs3)C2)nc2c1cnn2C1CCCCC1 [Example 142, 1-cyclohexyl-6-(1-(4-(morpholinomethyl)thiazol-2-yl)azetidin-3-yl)-1H-pyrazolo[3,4-d]pyrimidin-4(5H)-one]
1000 to 1500	CC(C)N1CCN(Cc2csc(N3CC(c4nc5c(cnn5C5CCCCC5)c(=O)[nH]4)C3)n2)CC1 [Example 143, 1-cyclohexyl-6-(1-(4-((4-isopropylpiperazin-1-yl)methyl)thiazol-2-yl)azetidin-3-yl)-1H-pyrazolo[3,4-d]pyrimidin-4(5H)-one]
101 to 500	CN1CCN(c2ccc3[nH]c(N4CC(c5nc6c(cnn6C(C)(C)C)c(=O)[nH]5)C4)nc3c2)CC1 [Example 144, 1-tert-butyl-6-(1-(5-(4-methylpiperazin-1-yl)-1H-benzo[d]imidazol-2-yl)azetidin-3-yl)-1H-pyrazolo[3,4-d]pyrimidin-4(5H)-one]
1 to 100	O=c1[nH]c(C2CN(c3ccc(S(=O)(=O)N4CCOCC4)cc3)C2)nc2c1cnn2C1CCCCC1 [Example 145, 1-Cyclohexyl-6-(1-(4-(Morpholinosulfonyl)phenyl)azetidin-3-yl)-1H-pyrazolo[3,4-d]pyrimidin-4(5H)-one]
1 to 100	Nc1cc(N2CC(c3nc4c(cnn4C4CCCCC4)c(=O)[nH]3)C2)ccc1[N+](=O)[O-] [Example 146, 6-(1-(3-amino-4-nitrophenyl)azetidin-3-yl)-1-cyclohexyl-1H-pyrazolo[3,4-d]pyrimidin-4(5H)-one]
1 to 100	CC(=O)c1ccc(N2CC(c3nc4c(cnn4C4CCCCC4)c(=O)[nH]3)C2)cc1 [Example 147, 6-(1-(4-acetoylphenyl)azetidin-3-yl)-1-cyclohexyl-1H-pyrazolo[3,4-d]pyrimidin-4(5H)-one]
1 to 100	N#Cc1ccc(N2CC(c3nc4c(cnn4C4CCCCC4)c(=O)[nH]3)C2)cc1 [Example 148, 4-(3-(1-cyclohexyl-4-oxo-4,5-dihydro-1H-pyrazolo[3,4-d]pyrimidin-6-yl)azetidin-1-yl)benzonitrile]
1 to 100	Cc1cc(N2CC(c3nc4c(cnn4C4CCCCC4)c(=O)[nH]3)C2)ccc1[N+](=O)[O-] [Example 149, 1-cyclohexyl-6-(1-(3-methyl-4-nitrophenyl)azetidin-3-yl)-1H-pyrazolo[3,4-d]pyrimidin-4(5H)-one]
101 to 500	N#Cc1ccccc1N1CC(c2nc3c(cnn3C3CCCCC3)c(=O)[nH]2)C1 [Example 150, 2-(3-(1-cyclohexyl-4-oxo-4,5-dihydro-1H-pyrazolo[3,4-d]pyrimidin-6-yl)azetidin-1-yl)benzonitrile]
101 to 500	CC(=O)c1ccccc1N1CC(c2nc3c(cnn3C3CCCCC3)c(=O)[nH]2)C1 [Example 151, 6-(1-(2-acetoylphenyl)azetidin-3-yl)-1-cyclohexyl-1H-pyrazolo[3,4-d]pyrimidin-4(5H)-one]
101 to 500	O=c1[nH]c(C2CN(c3ccc(C(F)(F)F)cc3)C2)nc2c1cnn2C1CCCCC1 [Example 152, 1-cyclohexyl-6-(1-(4-(trifluoromethyl)phenyl)azetidin-3-yl)-1H-pyrazolo[3,4-d]pyrimidin-4(5H)-one]
1000 to 1500	O=c1[nH]c(C2CCCN(c3ccc([N+](=O)[O-])cn3)C2)nc2c1cnn2C1CCCCC1 (centres unmarked) [Example 153, 1-cyclohexyl-6-(1-(5-nitropyridin-2-yl)piperidin-3-yl)-1H-pyrazolo[3,4-d]pyrimidin-4(5H)-one]
1000 to 1500	O=c1[nH]c(C2CCCN(c3ccc(C(F)(F)F)cn3)C2)nc2c1cnn2C1CCCCC1 (centres unmarked) [Example 154, 1-cyclohexyl-6-(1-(5-(trifluoromethyl)pyridin-2-yl)piperidin-3-yl)-1H-pyrazolo[3,4-d]pyrimidin-4(5H)-one]
1 to 100	O=c1[nH]c(C2CN(c3ccc(CN4CCOCC4)cc3)C2)nc2c1cnn2C1CCCCC1 [Example 155, 1-Cyclohexyl-6-[1-(4-morpholin-4-ylmethyl-phenyl)-azetidin-3-yl]-1,5-dihydro-pyrazolo[3,4-d]pyrimidin-4-one]
101 to 500	O=c1[nH]c(C2CN(c3ccccc3CN3CCOCC3)C2)nc2c1cnn2C1CCCCC1 [Example 156, 1-Cyclohexyl-6-(1-(2-(morpholinomethyl)phenyl)azetidin-3-yl)-1H-pyrazolo[3,4-d]pyrimidin-4(5H)-one]
101 to 500	CC(C)(C)c1csc(N2CC(c3nc4c(cnn4C4CCCCC4)c(=O)[nH]3)C2)n1 [Example 157, 6-(1-(4-tert-Butylthiazol-2-yl)azetidin-3-yl)-1-cyclohexyl-1H-pyrazolo[3,4-d]pyrimidin-4-(5H)-one]
1 to 100	O=c1[nH]c(C2CN(c3nnc(-c4ccccc4)[nH]3)C2)nc2c1cnn2C1CCCCC1 [Example 158, 1-Cyclohexyl-6-(1-(5-phenyl-4H-1,2,4-triazol-3-yl)azetidin-3-yl)-1H-pyrazolo[3,4-d]pyrimidin-4-(5H)-one]

IC50 [nM]	SMILES
1 to 100	O=c1[nH]c(C2CN(c3nc(-c4ccccc4)cs3)C2)nc2c1cnn2C1CCCCC1 [Example 159, 1-Cyclohexyl-6-(1-(4-phenylthiazol-2-yl)azetidin-3-yl)-1H-pyrazolo[3,4-d]pyrimidin-4-(5H)-one]
101 to 500	O=c1[nH]c(C2CN(c3ncc(-c4ccccc4)s3)C2)nc2c1cnn2C1CCCCC1 [Example 160, 1-Cyclohexyl-6-(1-(5-phenylthiazol-2-yl)azetidin-3-yl)-1H-pyrazolo[3,4-d]pyrimidin-4-(5H)-one]
1 to 100	CC(C)N1CCN(c2ccc(-c3csc(N4CC(c5nc6c(cnn6C6CCCCC6)c(=O)[nH]5)C4)n3)cc2)CC1 [Example 161, 1-Cyclohexyl-6-(1-(4-(4-(4-isopropylpiperazin-1-yl)phenyl)thiazol-2-yl)azetidin-3-yl)-1H-pyrazolo[3,4-d]pyrimidin-4-(5H)-one]
1 to 100	O=c1[nH]c(C2CN(c3nc(-c4ccccc4)c(CN4CCOCC4)s3)C2)nc2c1cnn2C1CCCCC1 [Example 162, 1-Cyclohexyl-6-(1-(5-morpholin-4-ylmethyl-4-phenylthiazol-2-yl)azetidin-3-yl)-1H-pyrazolo[3,4-d]pyrimidin-4-(5H)-one]
101 to 500	CC(C)(C)n1ncc2c(=O)[nH]c(C3CN(c4ccccn4)C3)nc21 [Example 163, 1-tert-Butyl-6-(1-pyridin-2-yl-azetidin-3-yl)-1,5-dihydro-pyrazolo[3,4-d]pyrimidin-4-one]
1 to 100	CC(C)(C)n1ncc2c(=O)[nH]c(C3CN(c4ccc(CN5CCOCC5)cc4)C3)nc21 [Example 164, 1-tert-Butyl-6-[1-(4-morpholin-4-ylmethyl-phenyl)-azetidin-3-yl]-1,5-dihydro-pyrazolo[3,4-d]pyrimidin-4-one]
101 to 500	COc1ccc(N2CC(c3nc4c(cnn4C4CCCCC4)c(=O)[nH]3)C2)cc1 [Example 165, 1-cyclohexyl-6-(1-(4-methoxyphenyl)azetidin-3-yl)-1H-pyrazolo[3,4-d]pyrimidin-4(5H)-one]
101 to 500	COc1cccc(N2CC(c3nc4c(cnn4C4CCCCC4)c(=O)[nH]3)C2)c1 [Example 166, 1-cyclohexyl-6-(1-(3-methoxyphenyl)azetidin-3-yl)-1H-pyrazolo[3,4-d]pyrimidin-4(5H)-one]
101 to 500	CC(=O)Nc1ccc(N2CC(c3nc4c(cnn4C4CCCCC4)c(=O)[nH]3)C2)cc1 [Example 167, N-(4-(3-(1-cyclohexyl-4-oxo-4,5-dihydro-1H-pyrazolo[3,4-d]pyrimidin-6-yl)azetidin-1-yl)phenyl)acetamide]
101 to 500	O=c1[nH]c(C2CN(c3ccccc3)C2)nc2c1cnn2C1CCCCC1 [Example 168, 1-cyclohexyl-6-(1-phenylazetidin-3-yl)-1H-pyrazolo[3,4-d]pyrimidin-4(5H)-one]
101 to 500	COc1ccccc1N1CC(c2nc3c(cnn3C3CCCCC3)c(=O)[nH]2)C1 [Example 169, 1-cyclohexyl-6-(1-(2-methoxyphenyl)azetidin-3-yl)-1H-pyrazolo[3,4-d]pyrimidin-4(5H)-one]
101 to 500	Cc1nn(C2CCCCC2)c2nc(C3CN(C(=O)N(C)Cc4ccc(F)cc4)C3)[nH]c(=O)c12 [Example 170, 3-(1-Cyclohexyl-3-methyl-4-oxo-4,5-dihydro-1H-pyrazolo[3,4-d]pyrimidin-6-yl)-N-(4-fluorobenzyl)-N-methylazetidine-1-carboxamide]
501 to 1000	Cn1c(CN2CC(c3nc4c(cnn4C(C)(C)C)c(=O)[nH]3)C2)nc2ccccc21 [Example 171, 1-tert-Butyl-6-(1-((1-methyl-1H-benzo[d]imidazol-2-yl)methyl)azetidin-3-yl)-1H-pyrazolo[3,4-d]pyrimidin-4(5H)-one]
501 to 1000	O=c1[nH]c(C2CN(Cc3nc4ccccc4s3)C2)nc2c1cnn2C1CCCCC1 [Example 172, 6-(1-(Benzo[d]thiazol-2-ylmethyl)azetidin-3-yl)-1-cyclohexyl-1H-pyrazolo[3,4-d]pyrimidin-4(5H)-one]
101 to 500	CC(C)(C)n1ncc2c(=O)[nH]c(C3CN(CC(=O)Nc4ccccc4)C3)nc21 [Example 173, 2-(3-(1-tert-Butyl-4-oxo-4,5-dihydro-1H-pyrazolo[3,4-d]pyrimidin-6-yl)azetidin-1-yl)-N-phenylacetamide]
101 to 500	CC(C)(C)n1ncc2c(=O)[nH]c(C3CN(CC(=O)c4ccccc4)C3)nc21 [Example 174, 1-tert-Butyl-6-(1-(2-oxo-2-phenylethyl)azetidin-3-yl)-1H-pyrazolo[3,4-d]pyrimidin-4(5H)-one]
1000 to 1500	CC(C)(C)n1ncc2c(=O)[nH]c(C3CN(Cc4nc5ccccc5[nH]4)C3)nc21 [Example 175, 6-(1-((1H-Benzo[d]imidazol-2-yl)methyl)azetidin-3-yl)-1-tert-butyl-1H-pyrazolo[3,4-d]pyrimidin-4(5H)-one]
